Data on two molecules can be found in patent publication EP2653477B1, “SCORPION ACTIVE PEPTIDES AND PREPARATION METHODS AND APPLICATIONS THEREOF” (Wuhan More Biotechnology Co., Ltd., priority 2010, dated 2012).

One data set deals with T1, potassium channel Kv1.3 (Homo sapiens, UniProt P22001).
T1 construct: expressed in transfected cells; host or cells: COS-7 cells, selected with 0.8 mg/mL geneticin
Briefly: whole-cell patch clamp, inhibition of Kv1.3 current in transfected COS-7 cells. Format: cell-based. Particulars: potassium channel Kv1.3 in COS-7 cells, read-out: polypeptide concentrations that inhibit the current by half (IC50 value). On the procedure:
COS-7 cells were cultured in a DMEM medium containing 10% fetal calf serum, at 37° C, 5% CO2. The recombinant plasmids of potassium channel Kv1.3 were transfected by using a Sofast™ transfection kit, and the transfected cells were selectively cultured in a medium containing 0.8 mg/mL geneticin. The pharmacological activities of scorpion active polypeptides ADMR-011, ADMR-016, ADMR-019, ADMR-023 and ADMR-028 were tested and analyzed by using an instrument of whole-cell patch clamp (EPC-10 dual-channel patch clamp amplifier HEKA, Elektronik, Lambrecht, Germany). The setting of the experimental parameters, the collecting of data, and the applying of stimulus were all controlled by Pulse software (Elektronik, Lambrecht, Germany). The filter of the instrument was set to be 10 kHz (Bessel), and the electrode impedance was 2∼5 MΩ. After the formation of giga-seal (1∼5 GΩ) between the electrode and cell membrane, an automatic c-fast was performed, and the membrane was broken by slightly applying negative pressure, then an automatic c-slow was performed. At a holding potential of -70 mV, depolarizing pulses, incrementing in 10 mV steps, with a step width of 80 ms , were given to stimulate from -60 mV to +50 mV, and the condition of current was observed. The polypeptides ADMR-011, ADMR-016 and ADMR-019 were accurately perfused, which was achieved by MPS-2 (INBIO Inc, Wuhan, China) perfusing system. After dissolving the three scorpion active polypeptides, they were applied by spraying via DAD Drug Application System (ALA), and the tip of the tube for drug application was about 100 µm away from the cell being recorded.
It can be known from Figure 16 to Figure 20 that, the pharmacological activity of ADMR-011 on potassium channel Kvl.3 was 91 pM, the pharmacological activity of ADMR-016 on potassium channel Kvl.3 was 2.58 nM, the pharmacological activity of ADMR-019 on potassium channel Kv1.3 was 1.41 nM, and the pharmacological activity of ADMR-023 and ADMR-028 on potassium channel Kvl.3 were 0.49 nM and 0.65 nM, respectively. Therefore, they are polypeptides with potent activity that are currently found internationally.
(In general: The patch-clamp technique gives a direct electrical read-out from membranes.)

For a further data set, the system named is Wistar rat EAE model. Nature of the data set: EAE (multiple sclerosis) model in Wistar rats induced by GPSCH-CFA, clinical scoring. Type of data set: in vivo. Particulars: 100 µg·kg^-1 subcutaneously once every day, x±s, n=10, score 0-5. The text has this: Experimental animals: female inbred line Wistar rats (6∼8 week old, body weigh 150±10 g) and guinea pigs (300∼400 g, purchased from Wuhan University Laboratory Animal Center) were selected.
Formulating a mixed emulsion of whole spinal cord homogenate - Freund's complete adjuvant (GPSCH-CFA): a guinea pig was executed, and the spinal cord was rapidly removed, and prepared into 50% PBS homogenate by a ultrasonic disruptor (Sonics & Materials Inc, America), which was mixed with equal amount of Freund's complete adjuvant (BCG vaccine 10 mg/ml), and was pushed back and forth with syringes until forming a water-in-oil emulsion.
Wistar rat EAE model induced by EAE: GPSCH-CFA emulsion was injected intradermally into the foot pads of both the hind legs of Wistar rats, or simultaneously injected intradermally about 1×10^10 pertussis vaccine. The rats were weighed every day, and observed for their neurological symptoms. Experimental autoimmune encephalomyelitis appeared after the rats had been raised for 2 weeks.
The rats with experimental autoimmune encephalomyelitis (EAE) were divided into […] groups randomly: normal control group (negative control group), model control group (model rats + normal saline), administration group A (model rats + ADMR-011 polypeptide), administration group B (model rats + ADMR-016 polypeptide), administration group C (model rats + ADMR-019 polypeptide), administration group D (model rats + ADMR-023 polypeptide), and administration group E (model rats + ADMR-028 polypeptide), 10 rats for each group. For the administration groups, polypeptides ADMR-011, ADMR-016, ADMR-019, ADMR-023 and ADMR-028 were injected subcutaneously respectively at a dose of 100 µg·kg^-1, once every day in the morning. For the normal control group and the model control group, equivalent amount of normal saline was injected subcutaneously, and administered continuously. […] The highest clinical score for each animal was recorded, and the average value of them was taken to be the average clinical score.
The scoring criteria were: without any clinical symptom, 0 point; disappearance of tension in the tail, and observable mild awkward gait, 1 point; weakness in both the hind limbs, which can recover after passive body flipping, 2 points; paralysis in both the hind limbs, which can not recover after passive body flipping, 3 points; tetraplegia accompanied by incontinence of urine and feces, 4 points; moribund state or death, 5 points. Table 1. Scores for rats of various experimental groups in the EAE model (-x±s)

A further data set concerns rheumatoid arthritis. Briefly: pristane-induced rheumatoid arthritis in SD rats, joint score and hind foot plantar swelling. Type of data set: in vivo. On the set-up: key to Score of joint: clinical score 1-4: 1 joint red/swollen=1 ... severe whole-limb arthritis=4. The following applies: x±s, n=10; for Score of joint: arthritis rats, polypeptides 100 µg·kg^-1 (methotrexate 1.75 µg·kg^-1) subcutaneously once every day, score 1-4; for The swelling degree after the inflammation: volume difference of hind foot before and after the modeling. On the procedure: […] Female (♀) specific pathogen free (SPF) inbred line SD rats (Wuhan University Laboratory Animal Center), body weight 150±10 g, were selected, and pristane was injected intradermally at the base of the tail of rats in experimental groups at a dose of 0.2 ml/rat, after they were acclimatized in a clean-grade environment for 1 week. Rheumatoid arthritis appeared after the rats were raised for only 2 weeks.
The rats having arthritis were randomized into: normal control group (negative control group), model negative control group (model rat + normal saline), model positive control group (model rat + methotrexate), administration group A (model rat + ADMR-011 polypeptide), administration group B (model rat + ADMR-016 polypeptide), administration group C (model rat + ADMR-019 polypeptide), administration group D (model rat + ADMR-023 polypeptide), and administration group E (model rat + ADMR-028 polypeptide), 10 rats for each group. The administration groups were injected subcutaneously at a dose of 100 µg·kg^-1, once every day in the morning, and administered continuously; the normal control group and the model negative control group were injected subcutaneously with equivalent amount of normal saline; and the model positive control group were injected subcutaneously with methotrexate (MTX) at a dose of 1.75 µg·kg^-1, once every day, and administered continuously.
The highest clinical score for each animal was recorded, and the average value of them was taken to be the average clinical score. The scoring criteria were: one joint of a rat was red and swollen, 1 point; two joints of a rat were red and swollen, 2 points; all the joints of a rat were red and swollen, 3 points; severe arthritis in the entire limb of a rat, 4 points. Table 2. Arthritis scores for rats of various experimental groups (-x±s)
From day 8 of the experiment, the hind foot plantar volume of the rat was measured and recorded every other day for 21 consecutive days, and the swelling degree (mL) was calculated according to the volume difference before and after the modeling. Table 3. The swelling degree of rats in various experimental groups (-x±s)

The next data set concerns Kunming mice. Nature of the data set: toxicity study in mice, single intraperitoneal injection, 7 days observation. Format: in vivo. The following applies: 10 mg/kg intraperitoneally once (100 times the dose for animal model), observed 7 days. On the procedure: 18∼20 g Kunming mice were selected, and divided into 4 groups, 8 male mice and 8 female mice for each group. The lyophilized powders of scorpion active polypeptides ADMR-011, ADMR-016, ADMR-019, ADMR-023 and ADMR-028 were dissolved with normal saline respectively, and the 3 groups of mice were injected intraperitoneally once respectively with polypeptide solution at a dose of 10 mg/kg (100 times of the dose for animal model), and the fourth group were injected with equivalent amount of normal saline as control.
After the administration, the respiration, motor and heartbeat in animals of all the groups were all normal, without significant abnormal reaction. 7 days after the administration, all the animals were conducted gross anatomy to observe the volume, color and texture of the main organs (heart, liver, spleen, lung, and kidney), and there was no macroscopic lesion. There were no significant difference between the 3 administration groups and the normal saline group.

Bridge positions count the residues as written; N and C are the ends. Peptide text beside a SMILES is read from it.

T1 sequence (P22001 whole entry): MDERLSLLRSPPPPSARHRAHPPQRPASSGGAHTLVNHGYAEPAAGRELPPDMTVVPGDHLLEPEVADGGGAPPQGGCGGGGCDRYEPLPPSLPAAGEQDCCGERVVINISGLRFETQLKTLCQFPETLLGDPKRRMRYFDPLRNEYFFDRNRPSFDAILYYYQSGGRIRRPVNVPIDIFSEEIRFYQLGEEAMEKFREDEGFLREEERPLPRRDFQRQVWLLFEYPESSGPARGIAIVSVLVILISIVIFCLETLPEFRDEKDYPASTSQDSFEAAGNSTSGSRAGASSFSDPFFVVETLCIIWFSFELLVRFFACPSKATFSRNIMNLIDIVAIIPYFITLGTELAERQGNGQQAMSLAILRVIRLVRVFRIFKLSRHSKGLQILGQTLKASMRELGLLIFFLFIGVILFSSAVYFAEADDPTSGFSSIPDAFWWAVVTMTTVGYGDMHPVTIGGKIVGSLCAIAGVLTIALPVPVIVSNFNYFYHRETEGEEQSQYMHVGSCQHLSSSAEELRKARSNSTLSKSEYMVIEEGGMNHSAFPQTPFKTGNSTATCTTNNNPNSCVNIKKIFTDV

Turning to `CC[C@H](C)[C@H](NC(=O)CNC(=O)[C@@H](N)C(C)C)C(=O)N[C@@H](CC(N)=O)C(=O)N[C@H](C(=O)N[C@@H](CCC(N)=O)C(=O)N[C@H]1CSSC[C@@H]2NC(=O)[C@H](CCC(N)=O)NC(=O)CNC(=O)[C@H](Cc3ccccc3)NC(=O)[C@H](CCCNC(=N)N)NC(=O)[C@H](CCSC)NC(=O)CNC(=O)[C@H](C)NC(=O)[C@H](CC(=O)O)NC(=O)[C@H](CCCCN)NC(=O)[C@@H]3CSSC[C@@H](C(=O)N[C@H](C(=O)N4CCC[C@H]4C(=O)N[C@@H](CCCCN)C(=O)O)[C@@H](C)O)NC(=O)[C@H](CC(=O)O)NC(=O)[C@H](CSSC[C@H](NC(=O)[C@H](CCC(N)=O)NC(=O)CNC(=O)[C@H](CO)NC(=O)[C@H]([C@@H](C)O)NC(=O)[C@H](CC(N)=O)NC1=O)C(=O)N[C@@H](CC(C)C)C(=O)N[C@@H](CCCCN)C(=O)N1CCC[C@H]1C(=O)N3)NC(=O)[C@H](CCCCN)NC(=O)CNC(=O)[C@H](CC(N)=O)NC(=O)[C@H]([C@@H](C)CC)NC2=O)C(C)C` [ADMR-016] (H-VGINVQCNTSGQCLKPCKDAGMRFGQCINGKCDCTPK-OH; disulfide 7-27, 13-32, 17-34 (inferred); N-terminus and C-terminus assumed), on potassium channel Kv1.3, the IC50 came to 2.58 nM. Also, the Average clinical scores in the data set with Wistar rat EAE model (8 d) was 0.50±0.23; in the data set with Wistar rat EAE model (10 d), 0.87±0.34; in the data set with Wistar rat EAE model (12 d) it was 1.31±0.42; in the data set with Wistar rat EAE model (14 d), 1.21±0.49. The Score of joint in the data set with rheumatoid arthritis (10 d) was determined as 1.84±0.71; with rheumatoid arthritis (15 d), 2.24±0.53; in the data set on rheumatoid arthritis (21 d), 1.96±0.62. For the same molecule, the “The swelling degree after the inflammation” value was 0.037 ± 0.012 mL with rheumatoid arthritis (d8), 0.25 ± 0.07 mL in the data set on rheumatoid arthritis (d15), 0.37 ± 0.08 mL with rheumatoid arthritis (d22) and 0.33 ± 0.12 mL in the data set with rheumatoid arthritis (d28). In the data set on Kunming mice, the toxicity in mice entry is given as “no significant toxicity”.

Regarding `CC[C@H](C)[C@H](NC(=O)CNC(=O)[C@@H](N)C(C)C)C(=O)N[C@@H](CC(N)=O)C(=O)N[C@H](C(=O)N[C@@H](CCC(N)=O)C(=O)N[C@H]1CSSC[C@@H]2NC(=O)[C@H](CCC(N)=O)NC(=O)CNC(=O)[C@H](Cc3ccccc3)NC(=O)[C@H](CCCNC(=N)N)NC(=O)[C@H](CCSC)NC(=O)CNC(=O)[C@H](C)NC(=O)[C@H](CC(=O)O)NC(=O)[C@H](CCCCN)NC(=O)[C@@H]3CSSC[C@@H](C(=O)N[C@H](C(=O)N4CCC[C@H]4C(=O)N[C@@H](CCCCN)C(=O)O)[C@@H](C)O)NC(=O)[C@H](CC(=O)O)NC(=O)[C@H](CSSC[C@H](NC(=O)[C@H](CCC(N)=O)NC(=O)[C@H](CCCNC(=N)N)NC(=O)[C@H](CO)NC(=O)CNC(=O)[C@H](CC(N)=O)NC1=O)C(=O)N[C@@H](CC(C)C)C(=O)N[C@@H](CCCCN)C(=O)N1CCC[C@H]1C(=O)N3)NC(=O)[C@H]([C@@H](C)O)NC(=O)CNC(=O)[C@H](CC(N)=O)NC(=O)[C@H]([C@@H](C)CC)NC2=O)C(C)C` [ADMR-019] (H-VGINVQCNGSRQCLKPCKDAGMRFGQCINGTCDCTPK-OH; disulfide 7-27, 13-32, 17-34 (inferred); N-terminus and C-terminus assumed), the IC50 on potassium channel Kv1.3 was 1.41 nM. Also, the Average clinical scores in the data set on Wistar rat EAE model (8 d) was 0.53±0.16; in the data set with Wistar rat EAE model (10 d), 0.93±0.46; in the data set with Wistar rat EAE model (12 d), 1.19±0.51; in the data set with Wistar rat EAE model (14 d), 1.37±0.34. For the same molecule, the Score of joint in the data set on rheumatoid arthritis (10 d) was 1.78±0.48; in the data set on rheumatoid arthritis (15 d) it was 2.17±0.55; in the data set on rheumatoid arthritis (21 d) it was 1.81±0.77. Also, the “The swelling degree after the inflammation” value is 0.034 ± 0.011 mL with rheumatoid arthritis (d8), 0.27 ± 0.07 mL in the data set with rheumatoid arthritis (d15), 0.34 ± 0.11 mL with rheumatoid arthritis (d22) and 0.37 ± 0.13 mL with rheumatoid arthritis (d28). Also, the toxicity in mice entry in the data set on Kunming mice is “no significant toxicity”.
